Data published in PubChem BioAssay AID248 (DTP/NCI, 2004).
Toxic doses and inconclusive results are not listed. Rule as the data show it: active = T/C of 150% or more; inactive = T/C below 125%.

System: L1210 leukemia ip in BDF1 mice, survival T/C
Assay: NCI In Vivo Anticancer Drug Screen. Data for tumor model L1210 Leukemia (intraperitoneal) in B6D2F1 (BDF1) mice
Conditions: endpoint: mean survival time, higher = longer survival
In short: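 Antitumor effect is assessed in tumor-bearing animals. Survival in the compound arm is compared with a vehicle-dosed control arm and expressed as their quotient.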

[1] = dose: 100.0 mg/kg/injection, schedule: Q04DX003 (ip), vehicle: saline
[2] = dose: 200.0 mg/kg/injection, schedule: Q04DX003 (ip), vehicle: saline
[3] = dose: 400.0 mg/kg/injection, schedule: Q04DX003 (ip), vehicle: saline
[4] = dose: 100.0 mg/kg/injection, schedule: Q01DX001 (ip), vehicle: saline
[5] = dose: 25.0 mg/kg/injection, schedule: Q04DX003 (ip), vehicle: saline
[6] = dose: 100.0 mg/kg/injection, schedule: Q04DX002 (ip), vehicle: Klucel (hydroxypropylcellulose) (HPC)
[7] = dose: 200.0 mg/kg/injection, schedule: Q04DX002 (ip), vehicle: Klucel (hydroxypropylcellulose) (HPC)
[8] = dose: 400.0 mg/kg/injection, schedule: Q04DX002 (ip), vehicle: Klucel (hydroxypropylcellulose) (HPC)

Measured: T/C

O=C(Nc1cccc2ccccc12)OCCF
inactive: dose: 5.0 mg/kg/injection, schedule: Q01DX001 (ip), vehicle: carboxymethylcellulose (CMC) 101 % of control | dose: 10.0 mg/kg/injection, schedule: Q01DX001 (ip), vehicle: carboxymethylcellulose (CMC) 106 % of control | dose: 20.0 mg/kg/injection, schedule: Q01DX001 (ip), vehicle: carboxymethylcellulose (CMC) 104 % of control | dose: 40.0 mg/kg/injection, schedule: Q01DX001 (ip), vehicle: carboxymethylcellulose (CMC) 104 % of control | dose: 80.0 mg/kg/injection, schedule: Q01DX001 (ip), vehicle: carboxymethylcellulose (CMC) 106 % of control

CCCCOP(=S)(OCCCC)[S][Hg][c]1ccco1
inactive: dose: 25.0 mg/kg/injection, schedule: Q04DX002 (ip), vehicle: alcohol 97 % of control | dose: 50.0 mg/kg/injection, schedule: Q04DX002 (ip), vehicle: alcohol 97 % of control

CCNC(=S)OC1CCC2(C)C(=CCC3C2CCC2(C)C(C(C)CCC(CC)C(C)C)CCC32)C1 (configuration not stated)
inactive: dose: 100.0 mg/kg/injection, schedule: Q04DX002 (ip), vehicle: saline with Tween-80 87 % of control | dose: 200.0 mg/kg/injection, schedule: Q04DX002 (ip), vehicle: saline with Tween-80 87 % of control | dose: 400.0 mg/kg/injection, schedule: Q04DX002 (ip), vehicle: saline with Tween-80 94 % of control

C1CCCC(=NN=C2CCCCCCC2)CCC1
inactive: dose: 100.0 mg/kg/injection, schedule: Q01DX009 (ip), vehicle: saline with Tween-80 89 % of control | [1] 95 % of control | dose: 200.0 mg/kg/injection, schedule: Q01DX009 (ip), vehicle: saline with Tween-80 93 % of control | [2] 89 % of control | dose: 400.0 mg/kg/injection, schedule: Q01DX009 (ip), vehicle: saline with Tween-80 89 % of control | [3] 95 % of control

CCCCC[As](=O)(O)CCCCC
inactive: dose: 5.0 mg/kg/injection, schedule: Q01DX001 (ip), vehicle: saline 104 % of control | dose: 10.0 mg/kg/injection, schedule: Q01DX001 (ip), vehicle: saline 106 % of control | dose: 40.0 mg/kg/injection, schedule: Q01DX001 (ip), vehicle: saline 115 % of control | [4] 94 % of control

COC1OC(COC(=O)c2ccc([N+](=O)[O-])cc2)C(OCc2ccccc2)C1OC(=O)c1ccc([N+](=O)[O-])cc1 (configuration not stated)
inactive: dose: 50.0 mg/kg/injection, schedule: Q01DX001 (ip), vehicle: saline 113 % of control | [4] 105 % of control | dose: 200.0 mg/kg/injection, schedule: Q01DX001 (ip), vehicle: saline 116 % of control | dose: 400.0 mg/kg/injection, schedule: Q01DX001 (ip), vehicle: saline 105 % of control

Cc1cc(=O)c2cc(-c3ccccc3)ccc2[nH]1
inactive: [1] 100 % of control | [2] 92 % of control | [3] 90 % of control

O=C(O)C12CCC(CCC1O)C2 (configuration not stated)
inactive: dose: 75.0 mg/kg/injection, schedule: Q01DX001 (ip), vehicle: other 102 % of control | dose: 150.0 mg/kg/injection, schedule: Q01DX001 (ip), vehicle: other 100 % of control | dose: 300.0 mg/kg/injection, schedule: Q01DX001 (ip), vehicle: other 100 % of control

c1ccc(Cc2cccc[n+]2Cc2ccccc2)cc1
inactive: dose: 12.5 mg/kg/injection, schedule: Q04DX003 (ip), vehicle: saline 102 % of control | [5] 105 % of control

CCOC(=O)N1CCN(C(=S)[S-])CC1.CCOC(=O)N1CCN(C(=S)[S-])CC1.[Zn]
inactive: dose: 150.0 mg/kg/injection, schedule: Q01DX001 (ip), vehicle: saline 86 % of control | dose: 300.0 mg/kg/injection, schedule: Q01DX001 (ip), vehicle: saline 87 % of control

C=CCOP1(=O)OCC2OC(n3cnc4c(N)ncnc43)C(O)C2O1 (configuration not stated)
inactive: dose: 50.0 mg/kg/injection, schedule: Q01DX009 (ip), vehicle: saline 98 % of control | dose: 100.0 mg/kg/injection, schedule: Q01DX005 (ip), vehicle: saline 100 % of control | dose: 100.0 mg/kg/injection, schedule: Q01DX009 (ip), vehicle: saline 89 % of control | dose: 200.0 mg/kg/injection, schedule: Q01DX005 (ip), vehicle: saline 92 % of control | dose: 200.0 mg/kg/injection, schedule: Q01DX009 (ip), vehicle: saline 97 % of control

Oc1cccc(C2=NNC(c3cccc(O)c3)=NN2)c1
inactive: dose: 100.0 mg/kg/injection, schedule: Q04DX003 (ip), vehicle: gum acacia 93 % of control | dose: 200.0 mg/kg/injection, schedule: Q04DX003 (ip), vehicle: gum acacia 89 % of control | dose: 400.0 mg/kg/injection, schedule: Q04DX003 (ip), vehicle: gum acacia 86 % of control

CC(=O)Nc1cccc(Cl)c1F
inactive: [6] 100 % of control | [7] 93 % of control | [8] 107 % of control

C=CCc1ccc(OC(C)OCCOCCOCC)c(OC)c1 (configuration not stated)
inactive: dose: 100.0 mg/kg/injection, schedule: Q04DX002 (ip), vehicle: saline 92 % of control | dose: 200.0 mg/kg/injection, schedule: Q04DX002 (ip), vehicle: saline 96 % of control | dose: 400.0 mg/kg/injection, schedule: Q04DX002 (ip), vehicle: saline 101 % of control

N#Cc1c(C#N)c(/N=C/c2ccccc2)n(/N=C/c2ccccc2)c1N
inactive: dose: 87.5 mg/kg/injection, schedule: Q04DX003 (ip), vehicle: other 91 % of control | dose: 175.0 mg/kg/injection, schedule: Q04DX003 (ip), vehicle: other 93 % of control | dose: 350.0 mg/kg/injection, schedule: Q04DX003 (ip), vehicle: other 95 % of control

CC(=O)CC(=O)C(F)(F)F.CC(=O)CC(=O)C(F)(F)F.CC(=O)CC(=O)C(F)(F)F.CC(=O)CC(=O)C(F)(F)F.[Th]
inactive: dose: 100.0 mg/kg/injection, schedule: Q01DX005 (ip), vehicle: gum acacia 90 % of control | dose: 100.0 mg/kg/injection, schedule: Q04DX002 (ip), vehicle: gum acacia 96 % of control | dose: 200.0 mg/kg/injection, schedule: Q01DX005 (ip), vehicle: gum acacia 93 % of control | dose: 200.0 mg/kg/injection, schedule: Q01DX009 (ip), vehicle: gum acacia 101 % of control | dose: 200.0 mg/kg/injection, schedule: Q04DX002 (ip), vehicle: gum acacia 96 % of control | dose: 400.0 mg/kg/injection, schedule: Q01DX005 (ip), vehicle: gum acacia 90 % of control | dose: 400.0 mg/kg/injection, schedule: Q01DX009 (ip), vehicle: gum acacia 94 % of control | dose: 400.0 mg/kg/injection, schedule: Q04DX002 (ip), vehicle: gum acacia 107 % of control

CC(C)[C@]12O[C@H]1[C@@H]1O[C@@]13[C@@]1(C)CCC4=C(COC4=O)[C@@H]1C[C@@H]1O[C@@]13C2=O
inactive: dose: 79.0 micrograms/kg/injection, schedule: Q01DX009 (ip), vehicle: saline 92 % of control | dose: 118.0 micrograms/kg/injection, schedule: Q01DX009 (ip), vehicle: saline 105 % of control | dose: 178.0 micrograms/kg/injection, schedule: Q01DX009 (ip), vehicle: saline 99 % of control | dose: 267.0 micrograms/kg/injection, schedule: Q01DX009 (ip), vehicle: saline 101 % of control | dose: 400.0 micrograms/kg/injection, schedule: Q01DX009 (ip), vehicle: saline 108 % of control

CC(=O)Oc1ccc(C[n+]2ccccc2)cc1
inactive: dose: 12.5 mg/kg/injection, schedule: Q01DX009 (ip), vehicle: saline 94 % of control | dose: 25.0 mg/kg/injection, schedule: Q01DX009 (ip), vehicle: saline 86 % of control | [5] 106 % of control | dose: 50.0 mg/kg/injection, schedule: Q04DX003 (ip), vehicle: saline 100 % of control

O=[N+]([O-])c1ccc2c(c1)/C(=N\O)c1cc(Cl)c(Cl)cc1-2
inactive: dose: 100.0 mg/kg/injection, schedule: Q01DX001 (ip), vehicle: carboxymethylcellulose (CMC) 98 % of control | dose: 100.0 mg/kg/injection, schedule: Q04DX003 (ip), vehicle: acetone 94 % of control | dose: 200.0 mg/kg/injection, schedule: Q01DX001 (ip), vehicle: carboxymethylcellulose (CMC) 98 % of control | dose: 200.0 mg/kg/injection, schedule: Q04DX003 (ip), vehicle: acetone 100 % of control | dose: 400.0 mg/kg/injection, schedule: Q01DX001 (ip), vehicle: carboxymethylcellulose (CMC) 95 % of control | dose: 400.0 mg/kg/injection, schedule: Q04DX003 (ip), vehicle: acetone 96 % of control

O=[N+]([O-])c1ccc(N/N=C2\CCCCCC2c2ccccc2)c([N+](=O)[O-])c1 (configuration not stated)
inactive: [6] 100 % of control | [7] 96 % of control | [8] 100 % of control
